# US20240270771A1, “Compound containing phosphate group, pharmaceutical composition containing same, preparation method therefor and use thereof” (SHANGHAI RAISING PHARMACEUTICAL CO., LTD., priority 2021, published 2024)
# How the values were obtained:
# [1] = Pharmacokinetic study, brain distribution test (TM in brain and whole blood); type: in vivo, SD rats; settings: single gavage to rats
# Procedure: (§1) The SD rats used in this test were purchased from Zhejiang Charles rive Laboratory Animal Co., Ltd. Both male and female rats of SPF grade weighting about 250 g were used.
# (§2) Preparation of the test article: a proper amount of test article was weighed and ground as fine powder in a mortar. A certain amount of the vehicle was added to a proper container, and then the ground test article was added to the container under magnetic stirring. The mixture was stirred until the appearance is uniform.
# The male SD rats were divided into three groups (16 rats in each group) (4 animals were sacrificed at 4 time points). […] The animals were sacrificed at 5 min, 1 h, 3 h, and 9 h after the administration. The brain was taken out immediately after sacrifice, rinsed with ice-cold water and rinsed. 50 mg of the brain tissue was weighed, added to 0.45 mL of 100 mM dipotassium hydrogen phosphate buffer (pH=5.0) and homogenized. Blood samples were taken simultaneously and anticoagulated with EDTA. After collection, blood samples were placed on ice. 150 μL of whole blood was taken and 150 μL of 5.2% perchloric acid was added to determine TM. Another 4 animals were gavage administered with normal saline for the determination of endogenous TM concentration. All samples were frozen and stored in a −80° C. refrigerator.
# (§3) The concentrations of TM and TDP in the samples were determined by HPLC-FLD.
# (§4) The non-compartment model of the DAS software was used to calculate the pharmacokinetic parameters of TM and TDP in blood of rats after administration. The concentration of TM in the brain tissue after the drug administration in rats was measured, and the mean value and standard deviation were calculated. The area under the drug-time curve AUC was calculated using the trapezoidal method.
# [2] = Pharmacokinetic study, absorption test (TM and TDP in whole blood); type: in vivo, SD rats; settings: same drug dose, single gavage, rats
# Procedure: as §1, §2
# The SD rats were divided into 3 groups (6 rats in each group, half male and half female). […] Blood was collected (about 200 µL/time) before drug administration (0 min) and 3 min, 8 min, 15 min, 30 min, 1 h, 2 h, 3 h, 5 h, 8 h, 12 h, 24 h and 48 h after drug administration. Blood was anticoagulated with EDTA and placed on ice after collection. […]
# as §3, §4
structure (smiles),measurement,setting,value
"CCCC(CCC)C(=O)S/C(CCOP(=O)(O)O)=C(/C)N(C=O)Cc1cnc(C)nc1N [Compound 1, (Z)—S-(2-(N-((4-amino-2-methylpyrimidin-5-yl)methyl)formamido)-5-(phosphonooxy)pent-2-en-3-yl) 2-propylpentanethioate]","AUC of TM in the brain, times of that of BTMP administration group",[1],1.56 times
same,"AUC of TM in the brain, times of that of the Comparative compound 2 administration group",[1],2.08 times
same,AUC of TM in the brain,"[1]; trapezoidal method, calculated after deducting the concentration at time zero",1156.6 ng·h/g
same,TM and TDP exposures compared with BTMP and Comparative compound 2 administration groups,[2],higher
same,t1/2 of TDP compared with BTMP or Comparative compound 2 administration group,[2],significantly higher
